The test deals with HCT116 sub clones. The test is described as follows: 6-thio-dG on HCT116 sub clone cell lines, cell count. The test is classed as cell-based, human. As to conditions: for sensitivity (cell count): 3 μM for 4 weeks. As for the experimental part:
In a separate experiment, 31 sub clone cell lines were derived from HCT116 cells that had no prior treatment with 6-thio-dG. […] At the end of one week, a cell count was performed of treated cells and cell percentage calculated relative to control cell count (FIG. 22). […] Four of the sub clone cell lines were further studied for resistance to 6-thio-dG. […] HCT116 Control group represent the main population treated with DMSO:water for 1-4 weeks. At the end of 4 weeks a cell count was performed to quantify cell growth. […] (FIG. 23)

For `Nc1nc2c(ncn2[C@H]2C[C@H](O)[C@@H](CO)O2)c(=S)[nH]1` [6-thio-dG, 6-thio-2′-deoxyguanosine], the “sensitivity (cell count)” value runs as follows: (HCT116 clone #5) “remained sensitive for the duration of the experiment”; (HCT116 clone #8) “maintained resistance for the duration of the treatment”; (HCT116 clone #15) “remained sensitive for the duration of the experiment”; (HCT116 sub clone #31) “acquired resistance and by week 4 showed cell growth indistinguishable from controls”. Besides, the “sensitivity (cell count relative to control)” value (HCT116 clone #8, 3 μM every three days for one week) is reported as “became intrinsically resistant to 6-thio-dG treatment”.

The values above are taken from patent publication US12070472B2, “Treatment of drug resistant proliferative diseases with telomerase mediated telomere altering compounds” (The Board of Regents of the University of Texas System, priority 2016, dated 2024).
